From patent US4877893A, “Process for the preparation of 2-(O-alkyl)-2-thio-1,3,2-oxathiophospholanes” (priority 1987, dated 1989) come the findings set out here.

What all share (assay): Fungicidal effect on infected agar nutrient media, colony diameter
Holding throughout (assay type): cell-based

In one assay the test system is Penicillium cyclopium. Particulars: 7th day after treatment, untreated 26.5. An outline of the steps:
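Agar media (70 mm diameter, 10 mm thick) infected with Penicillium cyclopium were treated with EC formulations at 1, 10, 100 and 1000 ppm active ingredient. Fungal colony diameter was measured on day 7 after treatment.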

The next assay has as its system Sclerotinia sclerotinia. Particulars: 3rd day after treatment, untreated control 41.7. As to the method: Agar nutrient media (Diameter 70 MM, thickness 10 mm) infected by Sclerotonia sclerotinia suspension are treated with 20 EC formulations prepared according to Example 27 and comprising 1, 10, 100 and 1000 ppm, respectively of the active ingredient of the Formula I. The fungicidal effect of the compositions is evaluated on the 3rd day after treatment by measuring the diameter of the Fungi colonies.

Another assay has as its system Alternaria tenuis. The following applies: 5th day after treatment, untreated control 36.8. The essentials: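 Agar media (70 mm diameter, 10 mm thick) infected with Alternaria tenuis, treated with EC formulations at 1, 10, 100 and 1000 ppm active ingredient. Fungicidal effect read on day 5 after treatment as fungal colony diameter.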

SMILES strings stand for the structures.

With `CC(I)COP1(=S)OC(C)C(C)S1` (stereo not drawn) [Compound 42], the “Diameter of colony (mm)” value with Penicillium cyclopium (1 ppm) came out at 22.2 mm; with Penicillium cyclopium (10 ppm), 17.2 mm; in the assay on Penicillium cyclopium (100 ppm), 7.5 mm; in the assay on Penicillium cyclopium (1000 ppm), 0 mm; with Sclerotinia sclerotinia (1 ppm), 38.2 mm; in the assay with Sclerotinia sclerotinia (10 ppm), 31.2 mm. The “Diameter of colony (mm)” value in the assay on Sclerotinia sclerotinia (100 ppm) stood at 3.5 mm; in the assay with Sclerotinia sclerotinia (1000 ppm), 0 mm; with Alternaria tenuis (1 ppm), 32.1 mm; in the assay with Alternaria tenuis (10 ppm), 20.4 mm; with Alternaria tenuis (100 ppm), 9.0 mm; in the assay with Alternaria tenuis (1000 ppm) it was 0 mm.
Consider `CC(Cl)C(C)OP1(=S)OC(C)C(C)S1` (stereo not drawn) [Compound 43, 2-(0-1',2'-dimethyl-2'-chloroethyl)-2-thio-4,5-dimethyl-1,3,2-oxathiophospholane], for which the “Diameter of colony (mm)” value stood at 25.2 mm in the assay on Penicillium cyclopium (1 ppm); 18.4 mm with Penicillium cyclopium (10 ppm); 6.3 mm with Penicillium cyclopium (100 ppm); 0 mm with Penicillium cyclopium (1000 ppm); 37.6 mm in the assay on Sclerotinia sclerotinia (1 ppm); 28.2 mm with Sclerotinia sclerotinia (10 ppm). Also, the “Diameter of colony (mm)” value with Sclerotinia sclerotinia (100 ppm) came out at 2.4 mm; in the assay on Sclerotinia sclerotinia (1000 ppm), 0 mm; with Alternaria tenuis (1 ppm), 32.4 mm; with Alternaria tenuis (10 ppm), 23.3 mm; in the assay on Alternaria tenuis (100 ppm), 6.2 mm; in the assay with Alternaria tenuis (1000 ppm), 0 mm.
`CC(Br)C(C)OP1(=S)OC(C)C(C)S1` (stereo not drawn) [Compound 44]: the “Diameter of colony (mm)” value in the assay on Penicillium cyclopium (1 ppm) is 17.9 mm; with Penicillium cyclopium (10 ppm), 17.1 mm; in the assay on Penicillium cyclopium (100 ppm) it was 5.1 mm; in the assay on Penicillium cyclopium (1000 ppm), 0 mm; in the assay on Sclerotinia sclerotinia (1 ppm) it was 35.4 mm; in the assay on Sclerotinia sclerotinia (10 ppm), 28.1 mm. Also, the “Diameter of colony (mm)” value in the assay with Sclerotinia sclerotinia (100 ppm) stood at 4.0 mm; in the assay on Sclerotinia sclerotinia (1000 ppm), 0 mm; in the assay on Alternaria tenuis (1 ppm), 33.5 mm; in the assay with Alternaria tenuis (10 ppm), 26.2 mm; in the assay on Alternaria tenuis (100 ppm) it was 7.0 mm; in the assay on Alternaria tenuis (1000 ppm) it was 0 mm.
For `CC(I)C(C)OP1(=S)OC(C)C(C)S1` (stereo not drawn) [Compound 45], the “Diameter of colony (mm)” value is given as 24.2 mm in the assay on Penicillium cyclopium (1 ppm); 15.5 mm with Penicillium cyclopium (10 ppm); 6.0 mm in the assay on Penicillium cyclopium (100 ppm); 0 mm in the assay with Penicillium cyclopium (1000 ppm); 39.2 mm in the assay on Sclerotinia sclerotinia (1 ppm); 30.0 mm with Sclerotinia sclerotinia (10 ppm). Moreover, the “Diameter of colony (mm)” value with Sclerotinia sclerotinia (100 ppm) was 1.6 mm; in the assay on Sclerotinia sclerotinia (1000 ppm), 0 mm; in the assay with Alternaria tenuis (1 ppm) it was 34.0 mm; with Alternaria tenuis (10 ppm), 20.4 mm; in the assay with Alternaria tenuis (100 ppm), 5.7 mm; with Alternaria tenuis (1000 ppm), 0 mm.
Consider `CCCOP1(=S)OCCS1` (stereo not drawn) [Compound 46, 2-(0-n-propyl)-2-thio-1,3,2-oxathiophospholane], for which the “Diameter of colony (mm)” value in the assay with Penicillium cyclopium (1 ppm) turned out to be 25.1 mm; with Penicillium cyclopium (10 ppm) it was 18.9 mm; in the assay on Penicillium cyclopium (100 ppm) it was 7.9 mm; with Penicillium cyclopium (1000 ppm), 0 mm; in the assay on Sclerotinia sclerotinia (1 ppm) it was 34.6 mm; in the assay on Sclerotinia sclerotinia (10 ppm), 28.7 mm. Further, the “Diameter of colony (mm)” value in the assay on Sclerotinia sclerotinia (100 ppm) was found to be 4.2 mm; in the assay with Sclerotinia sclerotinia (1000 ppm) it was 0 mm; with Alternaria tenuis (1 ppm) it was 34.2 mm; with Alternaria tenuis (10 ppm), 24.3 mm; in the assay with Alternaria tenuis (100 ppm), 5.8 mm; in the assay on Alternaria tenuis (1000 ppm), 0 mm.
In the case of `CCCOP1(=S)OC(C)CS1` (stereo not drawn) [Compound 47, 2-(0-n-propyl)-2-thio-5-methyl-1,3,2-oxathiophospholane], the “Diameter of colony (mm)” value in the assay on Penicillium cyclopium (1 ppm) is recorded as 23.8 mm; in the assay with Penicillium cyclopium (10 ppm), 20.1 mm; in the assay with Penicillium cyclopium (100 ppm) it was 8.3 mm; with Penicillium cyclopium (1000 ppm), 0 mm; with Sclerotinia sclerotinia (1 ppm), 33.9 mm; in the assay on Sclerotinia sclerotinia (10 ppm) it was 30.2 mm. Besides, the “Diameter of colony (mm)” value in the assay with Sclerotinia sclerotinia (100 ppm) turned out to be 3.9 mm; in the assay with Sclerotinia sclerotinia (1000 ppm), 0 mm; in the assay with Alternaria tenuis (1 ppm), 33.5 mm; with Alternaria tenuis (10 ppm), 25.7 mm; with Alternaria tenuis (100 ppm), 7.0 mm; in the assay with Alternaria tenuis (1000 ppm), 0 mm.
Regarding `CCCOP1(=S)OCC(C)S1` (stereo not drawn) [Compound 48, 2-(0-n-propyl)-2-thio-4-methyl-1,3,2-oxathiophospholane], the “Diameter of colony (mm)” value in the assay with Penicillium cyclopium (1 ppm) is recorded as 24.2 mm; in the assay on Penicillium cyclopium (10 ppm), 19.2 mm; in the assay on Penicillium cyclopium (100 ppm), 8.5 mm; in the assay on Penicillium cyclopium (1000 ppm), 0 mm; in the assay on Sclerotinia sclerotinia (1 ppm), 35.8 mm; with Sclerotinia sclerotinia (10 ppm), 29.1 mm. For the same molecule, the “Diameter of colony (mm)” value is recorded as 2.8 mm in the assay with Sclerotinia sclerotinia (100 ppm); 0 mm with Sclerotinia sclerotinia (1000 ppm); 36.1 mm in the assay with Alternaria tenuis (1 ppm); 24.6 mm in the assay with Alternaria tenuis (10 ppm); 6.3 mm with Alternaria tenuis (100 ppm); 0 mm in the assay with Alternaria tenuis (1000 ppm).
For `CCC(C)OP1(=S)OCCS1` (stereo not drawn) [Compound 49], the “Diameter of colony (mm)” value in the assay with Penicillium cyclopium (1 ppm) is 26.3 mm; in the assay on Penicillium cyclopium (10 ppm), 20.3 mm; in the assay on Penicillium cyclopium (100 ppm), 7.5 mm; with Penicillium cyclopium (1000 ppm), 0 mm; in the assay with Sclerotinia sclerotinia (1 ppm), 37.2 mm; in the assay on Sclerotinia sclerotinia (10 ppm) it was 30.4 mm. Further, the “Diameter of colony (mm)” value in the assay on Sclerotinia sclerotinia (100 ppm) came out at 4.0 mm; with Sclerotinia sclerotinia (1000 ppm) it was 0 mm; in the assay on Alternaria tenuis (1 ppm), 34.3 mm; with Alternaria tenuis (10 ppm) it was 25.9 mm; with Alternaria tenuis (100 ppm), 7.0 mm; with Alternaria tenuis (1000 ppm), 0 mm.
`CC(C)COP1(=S)OCCS1` (stereo not drawn) [Compound 50, 2-(0-2'-methyl-n-propyl)-2-thio-1,3,2-oxathiophospholane]: the “Diameter of colony (mm)” value turned out to be 25.1 mm in the assay on Penicillium cyclopium (1 ppm); 19.2 mm with Penicillium cyclopium (10 ppm); 7.7 mm in the assay on Penicillium cyclopium (100 ppm); 0 mm in the assay on Penicillium cyclopium (1000 ppm); 36.5 mm with Sclerotinia sclerotinia (1 ppm); 29.7 mm with Sclerotinia sclerotinia (10 ppm). Moreover, the “Diameter of colony (mm)” value is on record as 3.7 mm with Sclerotinia sclerotinia (100 ppm); 0 mm with Sclerotinia sclerotinia (1000 ppm); 35.2 mm in the assay with Alternaria tenuis (1 ppm); 23.8 mm in the assay on Alternaria tenuis (10 ppm); 5.3 mm with Alternaria tenuis (100 ppm); 0 mm with Alternaria tenuis (1000 ppm).
Turning to `CCCOP1(=S)OCC(CC)S1` (stereo not drawn) [Compound 51, 2-(0-n-propyl)-2-thio-4-ethyl-1,3,2-oxathiophospholane], the “Diameter of colony (mm)” value in the assay on Penicillium cyclopium (1 ppm) is listed as 24.9 mm; in the assay on Penicillium cyclopium (10 ppm) it was 18.7 mm; with Penicillium cyclopium (100 ppm) it was 8.2 mm; in the assay on Penicillium cyclopium (1000 ppm), 0 mm; in the assay on Sclerotinia sclerotinia (1 ppm), 34.3 mm; with Sclerotinia sclerotinia (10 ppm), 30.0 mm. In addition, the “Diameter of colony (mm)” value in the assay on Sclerotinia sclerotinia (100 ppm) was determined as 3.2 mm; in the assay on Sclerotinia sclerotinia (1000 ppm), 0 mm; in the assay on Alternaria tenuis (1 ppm), 35.1 mm; in the assay with Alternaria tenuis (10 ppm) it was 24.3 mm; in the assay with Alternaria tenuis (100 ppm) it was 6.9 mm; in the assay on Alternaria tenuis (1000 ppm), 0 mm.
For the molecule `CC(C)COP1(=S)OC(C)CS1` (stereo not drawn) [Compound 52, 2-(0-2'-methyl-n-propyI)-2-thio-5-methyl-1,3,2-oxathiophospholane], the “Diameter of colony (mm)” value in the assay with Penicillium cyclopium (1 ppm) stood at 26.2 mm; with Penicillium cyclopium (10 ppm), 20.0 mm; with Penicillium cyclopium (100 ppm), 8.8 mm; with Penicillium cyclopium (1000 ppm), 0 mm; with Sclerotinia sclerotinia (1 ppm), 37.1 mm; in the assay with Sclerotinia sclerotinia (10 ppm), 28.6 mm. Besides, the “Diameter of colony (mm)” value in the assay with Sclerotinia sclerotinia (100 ppm) came to 3.0 mm; in the assay with Sclerotinia sclerotinia (1000 ppm), 0 mm; in the assay with Alternaria tenuis (1 ppm), 34.8 mm; in the assay on Alternaria tenuis (10 ppm), 26.2 mm; with Alternaria tenuis (100 ppm) it was 4.7 mm; with Alternaria tenuis (1000 ppm), 0 mm.
In the case of `CCC(C)OP1(=S)OC(C)C(C)S1` (stereo not drawn) [Compound 53, 2-(0-1'-methyl-n-propyl)-2-thio-4,5-dimethyl1,3,2-oxathiophospholane], the “Diameter of colony (mm)” value with Penicillium cyclopium (1 ppm) is 24.8 mm; in the assay with Penicillium cyclopium (10 ppm) it was 19.2 mm; with Penicillium cyclopium (100 ppm) it was 7.6 mm; with Penicillium cyclopium (1000 ppm) it was 0 mm; in the assay on Sclerotinia sclerotinia (1 ppm), 35.8 mm; in the assay on Sclerotinia sclerotinia (10 ppm) it was 30.0 mm. In addition, the “Diameter of colony (mm)” value with Sclerotinia sclerotinia (100 ppm) stood at 3.8 mm; in the assay on Sclerotinia sclerotinia (1000 ppm) it was 0 mm; in the assay with Alternaria tenuis (1 ppm), 33.9 mm; in the assay on Alternaria tenuis (10 ppm) it was 25.4 mm; in the assay with Alternaria tenuis (100 ppm) it was 6.6 mm; with Alternaria tenuis (1000 ppm) it was 0 mm.
